Converted amounts (≈) assume the structure as drawn.
Legend:
[1] = system: Aspergillus fumigatus (RCMB 02568); test: Well diffusion assay (inhibition zone); assay type: cell-based; settings: RCMB02568, 5 mg/mL in DMSO, fungi, read-out: Inhibition Zone (IZ) diameter, A.F
Method: (§1) The microorganism inoculums were uniformly spread using sterile cotton swabs on a sterile Petri dish malt extract agar (for fungi) and nutrient agar (for bacteria). One hundred cubic millimeters of each sample was added to each well (10 mm-diameter holes were cut in the agar gel, 20 mm apart from one another). The systems were incubated for 24-48 h at 37 °C (for bacteria) and at 28 °C (for fungi). After incubation, the microorganism growth was observed. Inhibition zones of the bacterial and fungal growth were measured in millimeters. Tests were performed in triplicate (Cappuccino and Sherman, 1999[12]; Vanden Berghe and Vlientinck, 1991[62]).
(§2) All the newly synthesized compounds described in this report were screened for both antibacterial and antifungal activity via the reported agar diffusion well method (Vanden Berghe and Vlietinck, 1991[62]). The inhibition zones and minimum inhibitory concentrations (MIC) were determined by the serial dilution method (Cappuccino and Sherman, 1999[12]). The antimicrobial activity of the synthesized compounds was tested against a broad panel of microorganisms including two Gram-positive bacteria: Streptococcus pneumoniae (RCMB 010010) and Bacillus subtilis (RCMB 010067), two Gram-negative bacteria: Pseudomonas aeruginosa (RCMB 010043) and Escherichia coli (RCMB 010052), and four fungi: Aspergillus fumigatus (RCMB 02568), Syncephalastrum racemosum (RCMB 05922), Geotricum candidum (RCMB 05097), and Candida albicans (RCMB 05036). Ampicillin, ciprofloxacin, gentamicin and amphotericin B were used as positive control drugs (Atta-ur-Rahman and Thomsen, 2001[7]; Smania et al., 1999[57]). […] While in the case of Gm-ve bacteria, they had weak activity. In addition, certain strains of fungi were sensitive to tested compounds with an IZ range from 12-25 except Candida albicans.

[2] = system: Bacillus subtilis (RCMB 010067); test: Well diffusion assay (inhibition zone); assay type: cell-based; settings: RCMB010067, 5 mg/mL in DMSO, Gm+ve, read-out: Inhibition Zone (IZ) diameter, B.S
Method: as §1, §2

[3] = system: Escherichia coli (RCMB 010052); test: Well diffusion assay (inhibition zone); assay type: cell-based; settings: RCMB010052, 5 mg/mL in DMSO, Gm-ve, read-out: Inhibition Zone (IZ) diameter, E.C
Method: as §1, §2

[4] = system: Geotricum candidum (RCMB 05097); test: Well diffusion assay (inhibition zone); assay type: cell-based; settings: 5 mg/mL in DMSO; fungi; read-out: Inhibition Zone (IZ) diameter, G.C
Method: as §1, §2

[5] = system: Streptococcus pneumoniae (RCMB 010010); test: Well diffusion assay (inhibition zone); assay type: cell-based; settings: RCMB010010, 5 mg/mL in DMSO, Gm+ve, read-out: Inhibition Zone (IZ) diameter, S.P
Method: as §1, §2

[6] = system: Syncephalastrum racemosum (RCMB 05922); test: Well diffusion assay (inhibition zone); assay type: cell-based; settings: RCMB05922, 5 mg/mL in DMSO, fungi, read-out: Inhibition Zone (IZ) diameter, S.R
Method: as §1, §2

[7] = system: Aspergillus fumigatus (RCMB 02568); test: MIC by serial dilution method; assay type: cell-based; settings: RCMB02568, fungi, read-out: Minimum inhibitory concentration, MIC, A.F
Method: as §2

[8] = system: Bacillus subtilis (RCMB 010067); test: MIC by serial dilution method; assay type: cell-based; settings: RCMB010067, Gm+ve, read-out: Minimum inhibitory concentration, MIC, B.S
Method: as §2

[9] = system: Escherichia coli (RCMB 010052); test: MIC by serial dilution method; assay type: cell-based; settings: RCMB010052, Gm-ve, read-out: Minimum inhibitory concentration, MIC, E.C
Method: as §2

[10] = system: Geotricum candidum (RCMB 05097); test: MIC by serial dilution method; assay type: cell-based; settings: fungi; read-out: Minimum inhibitory concentration, MIC, G.C
Method: as §2

[11] = system: Streptococcus pneumoniae (RCMB 010010); test: MIC by serial dilution method; assay type: cell-based; settings: RCMB010010, Gm+ve, read-out: Minimum inhibitory concentration, MIC, S.P
Method: as §2

[12] = system: Syncephalastrum racemosum (RCMB 05922); test: MIC by serial dilution method; assay type: cell-based; settings: RCMB05922, fungi, read-out: Minimum inhibitory concentration, MIC, S.R
Method: as §2

[13] = system: Human colon carcinoma (HCT-116); test: Cytotoxic screening; assay type: cell-based; settings: Homo sapiens, HCT-116; read-out: IC50 HCT-116
Method: (§3) Human colon carcinoma (HCT-116), human hepatocellular carcinoma (HEPG-2), adenocarcinomic human alveolar basal epithelial cell (A-549), and human breast adenocarcinoma (MCF-7) cell lines were obtained from the American Type Culture Collection (ATCC, Rockville, MD). The cells were grown on RPMI-1640 medium supplemented with 10 % inactivated fetal calf serum and 50 µg/ml gentamycin. The cells were maintained at 37 °C in a humidified atmosphere with 5 % CO2 and were subcultured two to three times a week. Potential cytotoxicity of the compounds was evaluated on tumor cells using the method of Gangadevi and Muthumary (2007[21]) (Klancnik et al., 2010[36]). The cells were grown as monolayers in growth RPMI-1640. The monolayers of 104 cells adhered at the bottom of the wells in a 96-well microtiter plate incubated for 24 h at 37 °C in a humidified incubator with 5 % CO2. The monolayers were then washed with sterile phosphate buffered saline (0.01 M pH 7.2) and simultaneously the cells were treated with 100 µL from different dilutions of tested sample in fresh maintenance medium and incubated at 37 °C. A control of untreated cells was made in the absence of tested sample. Positive controls containing doxorubicin were also tested as a reference drug for comparison. Six wells were used for each concentration of the test sample. Every 24 hours an observation under the inverted microscope was made. The number of the surviving cells was determined by staining the cells with crystal violet (Mosmann, 1983[42]; Gangadevi and Muthumary, 2007[21]) followed by cell lysing using 33 % glacial acetic acid and reading the absorbance at 590 nm using microplate reader (SunRise, TECAN, Inc, USA) after well mixing. The absorbance values from untreated cells were considered as 100 % proliferation. The number of viable cells was determined using microplate reader as previously mentioned before and the percentage of […] was calculated as [1-(ODt/ODc)] x 100 % where ODt is the mean optical density of wells treated with the tested sample and ODc is the mean optical density of untreated cells. The relation between surviving cells and drug concentration was plotted to get the survival curve of each tumor cell line after treatment with the specified compound. The 50 % inhibitory concentration (IC50), the concentration required to cause toxic effects in 50 % of intact cells, was estimated from graphic plots.
(§4) The in vitro cytotoxic activity was performed by MTT assay (Mosmann, 1983[42]; Alley et al., 1988[6]) against three human carcinoma cell lines: Human colon carcinoma (HCT-116), human breast adenocarcinoma (MCF-7), and human hepatocellular carcinoma (HEPG-2).

[14] = system: human breast adenocarcinoma (MCF-7); test: Cytotoxic screening; assay type: cell-based; settings: Homo sapiens, MCF7; read-out: IC50 MCF-7
Method: as §3, §4

[15] = system: human hepatocellular carcinoma (HEPG-2); test: Cytotoxic screening; assay type: cell-based; settings: HepG2, read-out: IC50 HepG-2
Method: as §3, §4

[16] = system: Pseudomonas aeruginosa (RCMB 010043); test: Well diffusion assay (inhibition zone); assay type: cell-based; settings: RCMB010043, 5 mg/mL in DMSO, Gm-ve, read-out: Inhibition Zone (IZ) diameter, P.A
Method: as §1, §2

[17] = system: Pseudomonas aeruginosa (RCMB 010043); test: MIC by serial dilution method; assay type: cell-based; settings: RCMB010043, Gm-ve, read-out: Minimum inhibitory concentration, MIC, P.A
Method: as §2

Structure (SMILES)	MIC [7] [µg/mL]	MIC [8] [µg/mL]	MIC [9] [µg/mL]	MIC [10] [µg/mL]	MIC [11] [µg/mL]	MIC [12] [µg/mL]	MIC [17] [µg/mL]	melting point [°C]	zone of inhibition at 5000 µg/mL [1] [mm]	zone of inhibition at 5000 µg/mL [2] [mm]	zone of inhibition at 5000 µg/mL [3] [mm]	zone of inhibition at 5000 µg/mL [4] [mm]	zone of inhibition at 5000 µg/mL [5] [mm]	zone of inhibition at 5000 µg/mL [6] [mm]	IC50 [13] [µg/mL]	IC50 [14] [µg/mL]	IC50 [15] [µg/mL]	zone of inhibition at 5000 µg/mL [16] [mm]
O=[N+]([O-])c1ccc(N=Nc2ccc(O)cc2O)cc1 [12c, 4-(4-Nitro-phenylazo)-benzene-1,3-diol]	62.5 (≈ 241 µM)	7.81 (≈ 30.1 µM)	125 (≈ 482 µM)	15.6 (≈ 60.3 µM)	31.2 (≈ 121 µM)	125 (≈ 482 µM)	–	–	16.4	18.6	13.5	17.9	17.2	14.2	30.2 (≈ 117 µM)	24 (≈ 92.6 µM)	21.2 (≈ 81.8 µM)	–
COc1ccc(C2C(C#N)=C(N)Oc3c(N)cc4ccccc4c32)cc1 (stereo not drawn) [4d, 3,5-diamino-1-(4-methoxy-phenyl)-1H-benzo[f]chromene-2-carbonitrile]	0.98 (≈ 2.85 µM)	0.007 (≈ 0.0204 µM)	15.6 (≈ 45.5 µM)	0.06 (≈ 0.175 µM)	7.81 (≈ 22.7 µM)	62.5 (≈ 182 µM)	125 (≈ 364 µM)	183	22.3	29.8	17.6	25.8	19.5	16.5	4.79 (≈ 13.9 µM)	4.68 (≈ 13.6 µM)	2.64 (≈ 7.69 µM)	12.3
CC1(C)S[C@@H]2[C@H](NC(=O)[C@H](N)c3ccccc3)C(=O)N2[C@H]1C(=O)O [Ampicillin, reference compound]	–	0.007 (≈ 0.02 µM)	–	–	0.24 (≈ 0.687 µM)	–	–	–	–	32.4	–	–	23.8	–	–	–	–	–

Second part, led by results:

MIC [7] [µg/mL]	MIC [8] [µg/mL]	MIC [9] [µg/mL]	MIC [10] [µg/mL]	MIC [11] [µg/mL]	MIC [12] [µg/mL]	MIC [17] [µg/mL]	melting point [°C]	Structure (SMILES)	zone of inhibition at 5000 µg/mL [1] [mm]	zone of inhibition at 5000 µg/mL [2] [mm]	zone of inhibition at 5000 µg/mL [3] [mm]	zone of inhibition at 5000 µg/mL [4] [mm]	zone of inhibition at 5000 µg/mL [5] [mm]	zone of inhibition at 5000 µg/mL [6] [mm]	IC50 [13] [µg/mL]	IC50 [14] [µg/mL]	IC50 [15] [µg/mL]	zone of inhibition at 5000 µg/mL [16] [mm]
–	–	3.9 (≈ 8.17 µM)	–	–	–	31.2 (≈ 65.4 µM)	–	CNC(C)C1CCC(N)C(OC2C(N)CC(N)C(OC3OCC(C)(O)C(NC)C3O)C2O)O1 (stereo not drawn) [Gentamicin, reference compound]	–	–	19.9	–	–	–	–	–	–	17.3
–	–	0.49 (≈ 1.48 µM)	–	–	–	0.99 (≈ 2.99 µM)	–	O=C(O)c1cn(C2CC2)c2cc(N3CCNCC3)c(F)cc2c1=O [Ciprofloxacin, reference compound]	–	–	25.3	–	–	–	–	–	–	22.3
0.98 (≈ 2.44 µM)	0.49 (≈ 1.22 µM)	3.9 (≈ 9.69 µM)	0.98 (≈ 2.44 µM)	0.98 (≈ 2.44 µM)	3.9 (≈ 9.69 µM)	31.2 (≈ 77.7 µM)	260	N#CC1=C(N)Oc2cc(O)c(N=Nc3ccc(O)cc3)cc2C1c1ccccc1F (stereo not drawn) [13j, 2-Amino-4-(2-fluoro-phenyl)-7-hydroxy-6-(4-hydroxy-phenylazo)-4H-chromene-3-carbonitrile]	20.6	21.9	19.8	21.2	21	18.7	49.1 (≈ 122 µM)	44 (≈ 109 µM)	47.2 (≈ 117 µM)	16.3
3.9 (≈ 8.85 µM)	0.12 (≈ 0.272 µM)	3.9 (≈ 8.85 µM)	0.98 (≈ 2.22 µM)	0.24 (≈ 0.545 µM)	15.6 (≈ 35.5 µM)	15.6 (≈ 35.5 µM)	255	CC(C)(C)c1ccc(C2C(C#N)=C(N)Oc3cc(O)c(N=Nc4ccc(O)cc4)cc32)cc1 (stereo not drawn) [13i, 2-Amino-4-(4-tert-butyl-phenyl)-7-hydroxy-6-(4-hydroxy-phenylazo)-4H-chromene-3-carbonitrile]	17.3	22.4	17.2	20.3	21.3	19.2	75.7 (≈ 172 µM)	47 (≈ 107 µM)	31.6 (≈ 71.7 µM)	16.2
